≈ marks a conversion by molar mass, not a printed value. Where a name gives a salt, the structure may show the parent alone. Read-outs that look alike come from different tables or passages of the source.
How the values were obtained:
Type in all cases: cell-based
[1] = tested on: Strep. A; test: Agar dilution MIC, Strep. A; details: Table I, strain C203
From the text: (§1) A typical and preferred compound provided by this invention is 7-(2-naphthylglycylamido)-3-methyl-3-cephem-4-carboxylic acid, the compound of Example 3. The antibacterial activity of this compound and several others of the invention has been determined in standard in vitro agar dilution assays against a variety of gram positive microorganisms. The following Tables present typical minimum inhibitory concentrations (MIC's) in μg/ml for the compounds when evaluated against the indicated microorganisms. MIC's for several known compounds are also presented for comparison.

[2] = tested on: Klebsiella; test: Agar dilution MIC, Klebsiella; details: Table I, strain X26
From the text: as §1

[3] = tested on: Staph. epi; test: Agar dilution MIC, Staph. epi; details: Table I
From the text: (§2) The following Tables present typical minimum inhibitory concentrations (MIC's) in μg/ml for the compounds when evaluated against the indicated microorganisms.

[4] = tested on: H. influ.; test: Agar dilution MIC, H. influenza; details: Table I
From the text: as §2

[5] = tested on: Staph. aureus; test: Agar dilution MIC, Staph. aureus; details: Table I
From the text: as §2

[6] = tested on: Strep. PN; test: Agar dilution MIC, Strep. PN; details: Table I, strain PARK
From the text: as §2

SMILES | MIC ([1]; read-out: MIC) | MIC ([2]; Klebsiella, read-out: MIC) | MIC ([3]; strain 222, read-out: MIC) | MIC ([3]; strain EPI1, read-out: MIC) | MIC ([4]; strain 251, read-out: MIC) | MIC ([5]; Staphylococcus aureus, strain S13E) | MIC ([5]; Staphylococcus aureus, strain V41, read-out: MIC) | MIC ([5]; Staphylococcus aureus, strain X1.1, read-out: MIC) | MIC ([6]; read-out: MIC) | MIC ([4]; strain BRUN, read-out: MIC) | MIC [1] | MIC [2] | MIC ([3]; strain EPI1) | MIC ([4]; strain 251) | MIC ([4]; strain BRUN) | MIC ([5]; strain S13E) | MIC ([5]; strain V41) | MIC [6] | MIC ([3]; strain 222) | MIC ([5]; strain X1.1)
COC1=C(C(=O)O)N2C(=O)C(NC(=O)C(N)c3ccc4ccccc4c3)C2SC1 (racemic) [Example 6, 7-(2-Naphthylglycylamido)-3-methoxy-3-cephem-4-carboxylic acid trifluoroacetate] | 0.125 µg/mL | 8 µg/mL | 2 µg/mL | 8 µg/mL | 32 µg/mL | 32 µg/mL | 32 µg/mL | 1 µg/mL | > 138 µg/mL | – | – | – | – | – | – | – | – | – | – | –
CC1(C)S[C@@H]2[C@H](NC(=O)[C@H](N)c3ccccc3)C(=O)N2[C@H]1C(=O)O [Ampicillin, reference compound] | 0.03 µg/mL (≈ 0.0859 µM) | 16 µg/mL (≈ 45.8 µM) | – | 8 µg/mL (≈ 22.9 µM) | 16 µg/mL (≈ 45.8 µM) | – | – | – | 0.03 µg/mL (≈ 0.0859 µM) | 0.5 µg/mL (≈ 1.43 µM) | – | – | – | – | – | – | – | – | – | –
N[C@@H](C(=O)N[C@@H]1C(=O)N2C(C(=O)O)=C(Cl)CS[C@H]12)c1ccc2ccccc2c1 [Ex. 5A, D-7-(2-naphthylglycylamido)-3-chloro-3-cephem-4-carboxylic acid] | – | – | – | – | – | – | – | – | – | – | 0.125 µg/mL (≈ 0.299 µM) | 2 µg/mL (≈ 4.79 µM) | 2 µg/mL (≈ 4.79 µM) | 2 µg/mL (≈ 4.79 µM) | 4 µg/mL (≈ 9.57 µM) | 16 µg/mL (≈ 38.3 µM) | 16 µg/mL (≈ 38.3 µM) | 0.125 µg/mL (≈ 0.299 µM) | – | –
N[C@H](C(=O)N[C@@H]1C(=O)N2C(C(=O)O)=C(Cl)CS[C@H]12)c1ccc2ccccc2c1 [Ex. 5B, L-7-(2-naphthylglycylamido)-3-chloro-3-cephem-4-carboxylic acid] | – | – | – | – | – | – | – | – | – | – | 4 µg/mL (≈ 9.57 µM) | 2 µg/mL (≈ 4.79 µM) | 32 µg/mL (≈ 76.6 µM) | 16 µg/mL (≈ 38.3 µM) | – | – | – | – | 4 µg/mL (≈ 9.57 µM) | 8 µg/mL (≈ 19.1 µM)

From patent US4490370A, “Naphthylglycyl cephalosporin derivatives” (priority 1983, dated 1984)
